US3931344A, “Bromofluorocyclopropanes” (priority 1974, dated 1976)

Legend:
Assay type in all cases: in vivo
mice [1] = assay: inhalation anesthesia test in mice (10 min exposure in a rotating drum; pinch, corneal and righting reflexes); details: for potency as general anesthetics: administered in inhalation-anesthetic-susceptible organisms, in words; for AC50 (minimum concentration required to anesthetize 50% of the mice): inhalation, 10 minutes, rotating drum, at least four graded doses
Protocol: (§1) Mice were exposed to the anesthetic for a period of 10 minutes in a rotating drum. Observations were then made of the pinch reflex, the corneal reflex and the return of the righting reflex. At least four graded doses were employed to determine the minimum concentration required to anesthetize 50% of the mice used (AC50) and the minimum concentration required to kill 50% of the mice (LC50). The anesthetic index (AI) was then calculated from these minimum concentrations.

[2] = as above; details: mouse, in vivo, inhaled or intranasal; calculated from LC50 and AC50 in mice; read-out: AI (anesthetic index, LC50/AC50)
Protocol: as §1

mice [3] = assay: lethality in mice on inhalation (LC50); details: 10 minutes, rotating drum, when two figures are given, the actual value lies between them
Protocol: as §1

SMILES | potency as general anesthetics (mice [1]) | AC50 (minimum concentration required to anesthetize 50% of the mice) (mice [1]) [% volume] | selectivity ratio at 10 min [2] | LC50 (minimum concentration required to kill 50% of the mice) (mice [3])
CC1(F)CC1(F)Br (centres unmarked) [Example 3, 1-bromo-1,2-difluoro-2-methylcyclopropane] | high potency | 0.5 | 10 | 5 % volume
CC1CC1(F)Br (centres unmarked) [Example 4, 1-bromo-1-fluoro-2-methylcyclopropane] | high potency | < 2 | > 2 | 4-6 % volume
